Laboratory results as given in ChEMBL document CHEMBL1201862, “PubChem BioAssay data set” (2004).
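Where inhibition never reached the appropriate level, the endpoint shown equals the highest concentration tested. Otherwise, values were interpolated linearly from a five-concentration, 48-hour dose response in 96-well plates. GI50 is the concentration that inhibits growth by half.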 Active and inactive are the calls of the source. No stated cut-off is given here; in the data, active = GI50 up to about 1.1 µM and inactive = higher.

How the values were obtained:
Experiment in all cases: NCI tumour cell line growth inhibition, 48 h
OVCAR-8 = tested on: OVCAR-8
SF-268 = tested on: SF-268
OVCAR-3 = tested on: OVCAR-3
NCI-H23 = tested on: NCI-H23
HCT-116 = tested on: HCT-116
EKVX = tested on: EKVX
RXF 393 = tested on: RXF 393
SK-MEL-28 = tested on: SK-MEL-28
HOP-62 = tested on: HOP-62
IGROV-1 = tested on: IGROV-1
SNB-19 = tested on: SNB-19
SNB-75 = tested on: SNB-75
LOX IMVI = tested on: LOX IMVI
HOP-92 = tested on: HOP-92
SK-MEL-5 = tested on: SK-MEL-5

Compound	GI50 (OVCAR-8)	GI50 (SF-268)	GI50 (OVCAR-3)	GI50 (NCI-H23)	GI50 (HCT-116)	GI50 (EKVX)	GI50 (RXF 393)	GI50 (SK-MEL-28)	GI50 (HOP-62)	GI50 (IGROV-1)	GI50 (SNB-19)	GI50 (SNB-75)	GI50 (LOX IMVI)	GI50 (HOP-92)	GI50 (SK-MEL-5)
CCNC(=O)C(O)C1(O)CCC2[C@@H]3CCC4=CC(=O)C=C[C@]4(C)C3[C@@H](O)C[C@@]21C (some centres undefined)	> 100 µM (inactive)	> 49.4 µM (inactive)	> 100 µM (inactive)	> 100 µM (inactive)	> 100 µM (inactive)	> 100 µM (inactive)	> 100 µM (inactive)	> 100 µM (inactive)	> 100 µM (inactive)	> 100 µM (inactive)	> 100 µM (inactive)	> 100 µM (inactive)	> 95.1 µM (inactive)		
O=C(O)C1=CCCc2ccc3ccccc3c21	> 100 µM (inactive)	> 100 µM (inactive)	> 100 µM (inactive)	> 100 µM (inactive)	> 100 µM (inactive)	> 100 µM (inactive)	> 100 µM (inactive)	> 100 µM (inactive)		> 100 µM (inactive)	> 100 µM (inactive)	85.3 µM (inactive)	> 100 µM (inactive)	> 100 µM (inactive)	
CCOC(=O)C1=C(NC)OC/C1=N\NC(=O)c1ccccc1O	24.2 µM (inactive)	6.53 µM (inactive)	19.9 µM (inactive)	6.87 µM (inactive)	9.29 µM (inactive)	44.6 µM (inactive)	16.7 µM (inactive)	30.8 µM (inactive)	28 µM (inactive)	7.21 µM (inactive)	12.7 µM (inactive)	69.3 µM (inactive)	15.2 µM (inactive)	26.1 µM (inactive)	35.8 µM (inactive)
CCCCCCCCCCCCCCCCCC(=O)OCC(CN(C)CCN(C)C)OC(=O)CCCCCCCCCCCCCCCCC (centres undefined)	72.6 µM (inactive)	45.3 µM (inactive)	> 100 µM (inactive)	> 100 µM (inactive)	55.2 µM (inactive)	> 100 µM (inactive)	> 100 µM (inactive)	> 100 µM (inactive)	> 100 µM (inactive)	> 100 µM (inactive)	> 100 µM (inactive)	98.2 µM (inactive)	> 100 µM (inactive)	> 100 µM (inactive)	> 100 µM (inactive)
CCCCCC(C[N+]1(C)CCOCC1)C(=O)/C=C/c1ccccc1 (centres undefined)	12.7 µM (inactive)	9.64 µM (inactive)	14.4 µM (inactive)	14.7 µM (inactive)	3.41 µM (inactive)	19.9 µM (inactive)	14.4 µM (inactive)	16.2 µM (inactive)	30 µM (inactive)	19.4 µM (inactive)	12 µM (inactive)	7.33 µM (inactive)	1.76 µM (inactive)	18.7 µM (inactive)	13.4 µM (inactive)
CCOc1ccccc1C=C1c2ccccc2C(=O)c2ccccc21	5.27 µM (inactive)	5.07 µM (inactive)	2.5 µM (inactive)	4.06 µM (inactive)	4.63 µM (inactive)	3.23 µM (inactive)	2.04 µM (inactive)	12 µM (inactive)	3.76 µM (inactive)	3.58 µM (inactive)	3.63 µM (inactive)	2.17 µM (inactive)	8.69 µM (inactive)	5.48 µM (inactive)	2.75 µM (inactive)
CC(=O)N1[C@H](C(=O)O)CS[C@H]1c1ccncc1	32.7 µM (inactive)	> 100 µM (inactive)	> 100 µM (inactive)	> 100 µM (inactive)	> 100 µM (inactive)	> 100 µM (inactive)	> 100 µM (inactive)	> 100 µM (inactive)	> 100 µM (inactive)	> 100 µM (inactive)	> 100 µM (inactive)	> 100 µM (inactive)	> 100 µM (inactive)	> 100 µM (inactive)	> 100 µM (inactive)
CCOc1ccc(/C(C=O)=C(\Cl)c2ccc(OC)c(OC)c2)cc1	> 100 µM (inactive)	42.6 µM (inactive)	> 100 µM (inactive)	> 100 µM (inactive)	> 100 µM (inactive)	> 100 µM (inactive)		> 100 µM (inactive)		> 100 µM (inactive)	> 100 µM (inactive)		> 100 µM (inactive)	> 100 µM (inactive)	77.3 µM (inactive)
S=P1(c2ccccc2)Nc2ccc(Cl)cc2N1 (centres undefined)		> 100 µM (inactive)	> 100 µM (inactive)	> 100 µM (inactive)		> 100 µM (inactive)		> 100 µM (inactive)	> 100 µM (inactive)	35.5 µM (inactive)	> 100 µM (inactive)		> 100 µM (inactive)	20.2 µM (inactive)	> 100 µM (inactive)
O=C(Cl)c1cc([N+](=O)[O-])cc([N+](=O)[O-])c1		> 100 µM (inactive)		> 100 µM (inactive)	> 100 µM (inactive)	> 100 µM (inactive)		> 100 µM (inactive)	> 100 µM (inactive)	> 100 µM (inactive)	> 100 µM (inactive)	> 100 µM (inactive)	> 100 µM (inactive)	> 100 µM (inactive)	> 100 µM (inactive)
Cc1cc(N(CCC#N)CCC#N)ccc1/N=N/c1ccc(S(N)(=O)=O)cc1	> 100 µM (inactive)	> 100 µM (inactive)	> 100 µM (inactive)	> 100 µM (inactive)		> 100 µM (inactive)	> 100 µM (inactive)	> 100 µM (inactive)	> 100 µM (inactive)	> 100 µM (inactive)	> 100 µM (inactive)	> 100 µM (inactive)	> 100 µM (inactive)		> 100 µM (inactive)
CCOC(=O)C(C)c1c(C(=O)c2ccc(C)nc2)c2ccccc2n1C (centres undefined)	> 100 µM (inactive)	> 100 µM (inactive)	> 100 µM (inactive)	> 100 µM (inactive)		> 100 µM (inactive)	> 100 µM (inactive)	> 100 µM (inactive)	> 100 µM (inactive)	> 100 µM (inactive)		33.3 µM (inactive)	> 100 µM (inactive)	82.8 µM (inactive)	> 100 µM (inactive)
CN(C)CCSc1cccc(-c2cc(-c3cccc(SCCN(C)C)c3)nc(SCCN(C)C)n2)c1	1.42 µM (inactive)		10.2 µM (inactive)	4.49 µM (inactive)	1.17 µM (inactive)	2.06 µM (inactive)	1.35 µM (inactive)	1.93 µM (inactive)	16.3 µM (inactive)	3.37 µM (inactive)		2.95 µM (inactive)	1.64 µM (inactive)	0.551 µM (active)	1.55 µM (inactive)
Cc1nc([N+](=O)[O-])cn1CC(=N)N	> 100 µM (inactive)	> 100 µM (inactive)	> 100 µM (inactive)	> 100 µM (inactive)	> 100 µM (inactive)	> 100 µM (inactive)	> 100 µM (inactive)	> 100 µM (inactive)	> 100 µM (inactive)	> 100 µM (inactive)	> 100 µM (inactive)	20.8 µM (inactive)	> 100 µM (inactive)		> 100 µM (inactive)
CN(C)C=[N+]=[N-]	> 100 µM (inactive)	> 100 µM (inactive)	> 100 µM (inactive)	> 100 µM (inactive)	> 100 µM (inactive)	> 100 µM (inactive)	> 100 µM (inactive)		> 100 µM (inactive)	> 100 µM (inactive)	> 100 µM (inactive)	> 100 µM (inactive)		> 100 µM (inactive)	> 100 µM (inactive)
O=C(Nc1cc([N+](=O)[O-])cc([N+](=O)[O-])c1)OC1C2CCC1C1OC1C2 (centres undefined)	> 50 µM (inactive)	33.7 µM (inactive)	29.6 µM (inactive)	> 50 µM (inactive)	35.8 µM (inactive)	> 50 µM (inactive)	> 50 µM (inactive)	> 50 µM (inactive)	> 50 µM (inactive)	> 50 µM (inactive)	> 50 µM (inactive)	23.7 µM (inactive)		> 50 µM (inactive)	31.3 µM (inactive)
Cc1cc2c(=O)cc(-c3ccc(Cl)cc3)oc2c(C(=O)O)c1C	> 100 µM (inactive)	> 100 µM (inactive)	> 100 µM (inactive)	> 100 µM (inactive)	> 100 µM (inactive)	> 100 µM (inactive)	> 100 µM (inactive)	> 100 µM (inactive)		> 100 µM (inactive)	> 100 µM (inactive)	> 100 µM (inactive)	> 100 µM (inactive)		> 100 µM (inactive)
O=C(c1ccccc1)[C@H]1Nc2ccc(Cl)cc2[C@H]2CCC[C@@H]12	23.3 µM (inactive)	31.7 µM (inactive)	27.2 µM (inactive)	23.9 µM (inactive)	13.2 µM (inactive)		14.8 µM (inactive)	19.4 µM (inactive)	> 100 µM (inactive)	> 100 µM (inactive)	> 100 µM (inactive)	21.7 µM (inactive)	6.85 µM (inactive)		10.3 µM (inactive)
CCOC(=O)Cc1ccc2c(c1O)C(=O)c1c(ccc(CC(=O)OCC)c1O)C2=O	> 100 µM (inactive)	> 100 µM (inactive)	47.8 µM (inactive)	> 100 µM (inactive)	> 100 µM (inactive)	> 100 µM (inactive)	33 µM (inactive)	96.2 µM (inactive)	> 100 µM (inactive)		> 100 µM (inactive)	> 100 µM (inactive)	27.9 µM (inactive)	> 100 µM (inactive)	20.4 µM (inactive)
Cc1ccc(S(=O)(=O)OCOS(=O)(=O)c2ccc(C)cc2)cc1	> 100 µM (inactive)	> 100 µM (inactive)	> 100 µM (inactive)	> 100 µM (inactive)	> 100 µM (inactive)	> 100 µM (inactive)	> 100 µM (inactive)	> 100 µM (inactive)	> 100 µM (inactive)	> 100 µM (inactive)	> 100 µM (inactive)		> 100 µM (inactive)		> 100 µM (inactive)
